From publication PMC8780964, “Evaluation of the Pharmacokinetics of the Pancreastatin Inhibitor PSTi8 Peptide in Rats: Integration of In Vitro and In Vivo Findings” (Molecules, 2022)
Entries after “also recorded” stand apart in the source; their conditions may differ. Like-named read-outs stand apart in the source and are kept apart here. Ends that are not written are not given here.

How the values were obtained:
[1] = Plasma stability study; format: in vitro ADME
Description: Fresh rat plasma (1 mL) was used and pre-incubated in a shaking water bath at 37 °C for 10 min. PSTi8 was added to rat plasma at a final concentration of 1 or 5 µM and then incubated for […] at 37 °C in a shaking water bath. A total of 100 µL samples were aliquoted at predetermined time points (0, 5, 15, 30, 60, 90, 120 and 240 min), followed by SPE processing and analyzed using the validated LC-MS/MS method. The plasma stability was determined as the % drug remaining at different time points relative to the drug at 0 min [19].

[2] = Stability in rat plasma in different storage conditions (bioanalytical validation); format: in vitro ADME
Description: A QTRAP-4000 AB Sciex (SCIEX, Concord, ON, Canada) mass spectrometer using an electrospray ionization source tandem with the Shimadzu UFLC system was utilized for the quantitative analysis. Quantification was performed for PSTi8 and IS with positive ionization mode, using prominent selected reaction monitoring transitions as 607.80/771.20 and 342.20/229.10 m/z, respectively. The chromatographic separation of PSTi8 and IS was accomplished on a Phenomenex Aqua 5µ 125A (250 × 4.6 mm) column using an isocratic mode of mobile phase (methanol:0.1 % formic acid, 50:50 % v/v) with 0.4 mL/min flow rate. The analysis run time was 10 min and the injection volume was 10 μL for each sample. Analyst 1.6 software was used to regulate the LC-MS/MS instrument and for data quantification. The plasma sample extraction involved the SPE procedure using MAX cartridges, as previously described. The LC-MS/MS bioanalytical assay of PSTi8 peptide was validated in rat plasma as per the USFDA bioanalytical method validation guidance. The bioanalytical method development and validation of PSTi8 in mice plasma was recently reported. The bioanalytical validation and stability studies were conducted in rat plasma, as described earlier.

[3] = test system: C57Bl/6 mice; settings: mouse, in vivo; cited from earlier work
[4] = design: method as in PMID 31891874; settings: i.p., mice; cited from earlier work
[5] = Gender difference PK study, i.v. and i.p., female SD rats
Description: (§1) Female SD rats were utilized and distributed into two groups (each group contained 6 animals). To each group, a 5 mg/kg dose of PSTi8 was administered i.v. and i.p. for PK determination.
(§2) After dosing in rats, blood (250 µL) samples were collected in EDTA containing microcentrifuge tubes at 0.08, 0.16, 0.33, 0.50, 0.75, 1, 2, 3, 4, 5 and 6 h time points. Plasma was separated from the blood after centrifugation and kept in a −80 °C freezer for LC-MS/MS analysis.
(§3) The PK parameters of PSTi8 were estimated with a one-compartmental PK model in Phoenix WinNonlin. The i.p. and s.c. PK were best described by a one-compartment first-order PK model without lag time. The i.v. PK was well explained by a one-compartment model with a bolus input and first-order elimination rate. The PK parameters include the elimination constant (K10), absorption constant (K01), Tmax, elimination half-life (K10-HL), absorption half-life (K01-HL), Cmax, AUC (stands for model derived AUC0-∞), CL/F, mean residence time (MRT) and Vd/F. The bioavailability of PSTi8 was determined using the ratio between the AUC from i.p. or s.c. and i.v. routes, after normalizing the dose.

[6] = in vivo; settings: female, SD, rat, ip, 5 mg/kg
Description: as §1, §2, §3

[7] = in vivo; settings: male, SD, rat, ip
Description: (§4) Male SD rats were utilized in this study and distributed into two groups (each group contained 6 animals). To each group, PSTi8 was administered i.p. at a dose of 10 and 20 mg/kg in rats.
as §2
(§5) The PK parameters of PSTi8 were estimated with a one-compartmental PK model in Phoenix WinNonlin. […] The PK parameters include the elimination constant (K10), absorption constant (K01), Tmax, elimination half-life (K10-HL), absorption half-life (K01-HL), Cmax, AUC (stands for model derived AUC0-∞), CL/F, mean residence time (MRT) and Vd/F. The bioavailability of PSTi8 was determined using the ratio between the AUC from i.p. or s.c. and i.v. routes, after normalizing the dose.

[8] = Dose proportionality PK study, i.p., male SD rats; settings: for AUC(0-inf) / Cmax / Tmax / half-life: male, SD, rat, plasma, ip
Description: as §4, §2, §5

[9] = in vivo; settings: male, SD, rat, 5 mg/kg
Description: (§6) Rats were distributed into three groups and each group contained 6 animals.
as §2
(§7) The i.p. and s.c. PK were best described by a one-compartment first-order PK model without lag time. The i.v. PK was well explained by a one-compartment model with a bolus input and first-order elimination rate. The PK parameters include the elimination constant (K10), absorption constant (K01), Tmax, elimination half-life (K10-HL), absorption half-life (K01-HL), Cmax, AUC (stands for model derived AUC0-∞), CL/F, mean residence time (MRT) and Vd/F. The bioavailability of PSTi8 was determined using the ratio between the AUC from i.p. or s.c. and i.v. routes, after normalizing the dose.

[10] = Plasma protein binding, modified charcoal adsorption method; format: in vitro ADME; settings: rat plasma
Description: The protein binding study of the PSTi8 peptide was conducted in rat plasma using the modified charcoal adsorption method. The suspension of dextran-coated charcoal (0.66%) was prepared in the DPBS buffer (pH 7.4) and stirred overnight (18 h), before the study. PSTi8 (2 µM and 5 µM) was prepared in 2.5 mL rat plasma and pre-incubated at 37 ± 0.5 °C for 15 min in a shaking water bath. The exact volume of the charcoal suspension, the same as the plasma, was centrifuged at 3000 g for 15 min to separate DPBS. The supernatant was decanted and the pre-incubated plasma was added to the charcoal pellet-containing tubes. Plasma-containing charcoal tubes were incubated under continuous stirring up to 4 h. A total of 200 µL samples were collected at the time points of 0, 5, 10, 20, 30, 45, 60, 90, 120 and 180 min, and then centrifuged at 11,000 g for 2.5 min. A total of 100 µL supernatant of the centrifuged sample was separated, extracted using SPE and analyzed with LC-MS/MS. The % peptide remaining in the supernatant plasma sample versus time points data was evaluated using the i.v. bolus two-compartment analysis model on Phoenix 6.3 WinNonlin (Pharsight Corporation, Saint Louis, MO, USA). The model is defined by the bi-exponential Equation (1):(1) B(t)=A1exp(−αt)+A2exp(−βt) where B(t) % is the bound peptide remaining at time t and where A1, A2, α and β are constants.

[11] = Blood–plasma partitioning study (KRBC/PL)
Description: Fresh blood was collected from SD rats and used for the blood–plasma partitioning study. The blood was pre-incubated in a shaking water bath for 10 min at 37 ± 0.5 °C. […] During the study, the fresh rat plasma was separated from the same batch of whole blood. During the incubation time course, 250 µL aliquots of incubated whole blood samples were collected at different time points (0, 15, 30 and 60 min) and centrifuged at 10,000 g for 5 min at RT to obtain the plasma. At each time point, 100 µL aliquot of the reference plasma sample was collected. Both, 100 µL aliquot of generated plasma and reference plasma were processed and analyzed using the LC-MS/MS method. For the determination of hematocrit (Hc), heparinized whole blood (1.0 mL) was taken in a hematocrit tube and centrifuged at 2000 g for 30 min. The Hc for the whole blood was calculated by using Equation (2) [21, 22].

[12] = Equilibrium solubility in SGF and SIF; format: physicochemical
Description: The solubility of PSTi8 peptide was conducted using the equilibrium solubility method in SGF (pH 1.2) and SIF (pH 7.4). A total of 50 mg of PSTi8 was added to silanized glass vials containing 1 mL of buffer, and incubated for 1 h at 37 °C in a shaking water bath to attain equilibrium. After incubation, the samples were centrifuged for 10 min at 12,000 g, and supernatant was processed through SPE procedure and used for LC-MS/MS analysis.

[13] = PK and bioavailability after i.v., i.p. and s.c. administration in male SD rats; settings: for K01 (absorption constant) / K10 (elimination constant) / half-life: male SD rats
Description: as §6, §2, §7

[14] = Microsomal metabolic stability study; format: in vitro ADME, SD rats; settings: 5 µM
Description: RLM was prepared from SD rats from our lab, as previously reported. In vitro metabolic stability of PSTi8 was determined using RLM. The reaction milieu was prepared by adding 50 mM Tris buffer (pH 7.4), 40 mM MgCl2 pre-incubated at 37 °C along with RLM (0.5 mg/mL) and spiked at a concentration (5 µM) of PSTi8. The reaction was started with NADPH (1 mM) and without NADPH (negative control using Tris buffer). A total of 100 µL samples were collected at 0, 5, 15, 30, 45 and 60 min, and the reaction was quenched with liquid nitrogen. Samples were processed with the SPE procedure and analyzed using the LC-MS/MS method. Negative control was used to assess the peptide stability in the reaction milieu and the positive control (Testosterone, 25 µM) was incubated to obtain the microsomal activity.

[15] = female, SD, rat, plasma, ip, 5 mg/kg
[16] = female, SD, rat, plasma, iv, 5 mg/kg
[17] = male, SD, rat, plasma, ip, 5 mg/kg
[18] = male, SD, rat, plasma, iv, 5 mg/kg
[19] = male, SD, rat, plasma, sc, 5 mg/kg

PEGKGEQEHSQQKEEEEEMAV-NH2 [PSTi8]
stability in rat plasma (in words) [1]: high stability; also recorded: stable
remaining at 4 h, 1 µM ([1]; 1 µM, at 4 h, rat plasma, 37 °C, read-out: plasma stability (% drug remaining)): 88.8 ± 3.39%
remaining at 4 h, 5 µM ([1]; 5 µM, at 4 h, rat plasma, 37 °C, read-out: plasma stability (% drug remaining)): 90.6 ± 6.65%
Accuracy (%) of stability sample ([2]; 0 h (for all), nominal 30 ng/mL): 102.34%
Accuracy (%) of stability sample ([2]; 0 h (for all), nominal 400 ng/mL): 101.56%
Accuracy (%) of stability sample ([2]; 0 h (for all), nominal 800 ng/mL): 101.70%
Accuracy (%) of stability sample ([2]; Autosampler (4 °C, 12 h), nominal 30 ng/mL): 112.60%
Accuracy (%) of stability sample ([2]; Autosampler (4 °C, 12 h), nominal 400 ng/mL): 94.13%
Accuracy (%) of stability sample ([2]; Autosampler (4 °C, 12 h), nominal 800 ng/mL): 99.90%
Accuracy (%) of stability sample ([2]; Bench-top (2 h), nominal 30 ng/mL): 96.27%
Accuracy (%) of stability sample ([2]; Bench-top (2 h), nominal 400 ng/mL): 96.17%
Accuracy (%) of stability sample ([2]; Bench-top (2 h), nominal 800 ng/mL): 106.70%
Accuracy (%) of stability sample ([2]; Bench-top (6 h), nominal 30 ng/mL): 103.47%
Accuracy (%) of stability sample ([2]; Bench-top (6 h), nominal 400 ng/mL): 93.00%
Accuracy (%) of stability sample ([2]; Bench-top (6 h), nominal 800 ng/mL): 97.97%
Accuracy (%) of stability sample ([2]; Long term (-80°C, 30 days), nominal 30 ng/mL): 110.13%
Accuracy (%) of stability sample ([2]; Long term (-80°C, 30 days), nominal 400 ng/mL): 102.87%
Accuracy (%) of stability sample ([2]; Long term (-80°C, 30 days), nominal 800 ng/mL): 108.03%
Accuracy (%) of stability sample ([2]; Three freeze-thaw cycles, nominal 30 ng/mL): 101.30%
Accuracy (%) of stability sample ([2]; Three freeze-thaw cycles, nominal 400 ng/mL): 106.30%
Accuracy (%) of stability sample ([2]; Three freeze-thaw cycles, nominal 800 ng/mL): 108.77%
stability in rat plasma with diverse storage conditions (in words) ([2]; storage conditions of Table S2): stable
toxicity finding [3]: safe and non-toxic
bioavailability [4]: 52%
AUC [5, 15]: 9980 ± 523 ng·h/mL
AUC(0-inf) [5, 15]: 8820 ± 589 ng·h/mL
Cmax [5, 15]: 7000 ± 216 ng/mL
Tmax [5, 15]: 28.8 min
bioavailability [5, 15]: 91.9 ± 6.14%
half-life [5, 15]: 19.2 ± 1.2 min
AUC(0-inf) [5, 16]: 9590 ± 1750 ng·h/mL
Cmax [5, 16]: 42600 ng/mL
MRT [5, 16]: 13.2 ± 1.2 min
half-life [5, 16]: 9.6 ± 1.2 min
K01 (absorption constant) ([5]; i.p. 5 mg/kg, female SD rats): 2.14 ± 0.12 h⁻¹
K10 (elimination constant) ([5]; i.p. 5 mg/kg, female SD rats): 2.19 ± 0.18 h⁻¹
K10-HL (elimination half-life) ([5]; i.p. 5 mg/kg, female SD rats): 0.32 ± 0.02 h
K10 (elimination constant) ([5]; i.v. 5 mg/kg, female SD rats): 4.50 ± 0.48 h⁻¹
gender difference in PK parameters and bioavailability ([5]; male vs female SD rats, 5 mg/kg i.p. and i.v., 5 mg/kg): no gender differences; also recorded: no significant difference
CL/F [6]: 9.5 mL/min/kg
Vd/F [6]: 0.26 ± 0.01 L/kg
CL/F ([7]; 10 mg/kg): 5.17 mL/min/kg
Vd/F ([7]; 10 mg/kg): 0.26 ± 0.09 L/kg
CL/F ([7]; 20 mg/kg): 3.17 mL/min/kg
Vd/F ([7]; 20 mg/kg): 0.15 ± 0.03 L/kg
K01 (absorption constant) ([8]; i.p. 10 mg/kg, male SD rats): 4.89 ± 1.74 h⁻¹
K10 (elimination constant) ([8]; i.p. 10 mg/kg, male SD rats): 1.33 ± 0.60 h⁻¹
K01 (absorption constant) ([8]; i.p. 20 mg/kg, male SD rats): 4.94 ± 0.97 h⁻¹
K10 (elimination constant) ([8]; i.p. 20 mg/kg, male SD rats): 1.26 ± 0.18 h⁻¹
PK pattern in dose proportionality study ([8]; i.p. 10 and 20 mg/kg, male SD rats): non-linear PK; also recorded: non-linear pharmacokinetics
AUC(0-inf) ([8]; 10 mg/kg): 32400 ng·h/mL
Cmax ([8]; 10 mg/kg): 24300 ng/mL
Tmax ([8]; 10 mg/kg): 22.8 min
half-life ([8]; 10 mg/kg, K01-HL (absorption half-life), i.p. 10 mg/kg, male SD rats): 9 ± 3 min
half-life ([8]; 10 mg/kg, K10-HL (elimination half-life), i.p. 10 mg/kg, male SD rats): 35.4 ± 13.8 min
AUC(0-inf) ([8]; 20 mg/kg): 111000 ng·h/mL
Cmax ([8]; 20 mg/kg): 85600 ng/mL
Tmax ([8]; 20 mg/kg): 22.8 min
half-life ([8]; 20 mg/kg, K01-HL (absorption half-life), i.p. 20 mg/kg, male SD rats): 8.4 ± 1.8 min
half-life ([8]; 20 mg/kg, K10-HL (elimination half-life), i.p. 20 mg/kg, male SD rats): 33.6 ± 5.4 min
CL/F ([9]; ip): 10.3 mL/min/kg
Vd/F ([9]; ip): 0.39 ± 0.06 L/kg
CL/F ([9]; sc): 12.8 mL/min/kg
Vd/F ([9]; sc): 0.46 ± 0.09 L/kg
fraction unbound at 2 µM ([10]; 2 µM): 0.264
fraction unbound at 5 µM ([10]; 5 µM): 0.307
fraction unbound ([10]; summary in abstract): < 0.31
RBC:plasma partition coefficient (KRBC/PL) ([11]; 0.206 µM, time not given): 2.46 ± 0.44
blood–plasma partitioning ([11]; summary in abstract): > 2
solubility thermodynamic at 1 h ([12]; simulated gastric fluid (SGF) pH 1.2, 37 °C): 9.3 mg/mL
solubility thermodynamic at 1 h ([12]; simulated intestinal fluid (SIF) pH 7.4, 37 °C): 25.8 mg/mL
K01 (absorption constant) ([13]; i.p. 5 mg/kg): 2.90 ± 0.89 h⁻¹
K10 (elimination constant) ([13]; i.p. 5 mg/kg): 1.63 ± 0.33 h⁻¹
K10 (elimination constant) ([13]; i.v. 5 mg/kg): 3.79 ± 2.19 h⁻¹
AUC(0-inf) [13, 17]: 8100 ± 1040 ng·h/mL
Cmax [13, 17]: 6050 ± 348 ng/mL
Tmax [13, 17]: 28.8 min
bioavailability [13, 17]: 95 ± 12.2%
half-life ([13]; male, SD, rat, plasma, ip, 5 mg/kg, K01-HL (absorption half-life), i.p. 5 mg/kg): 15.6 ± 5.4 min
half-life ([13]; male, SD, rat, plasma, ip, 5 mg/kg, K10-HL (elimination half-life), i.p. 5 mg/kg): 26.4 ± 6 min
AUC(0-inf) [13, 18]: 8530 ± 1600 ng·h/mL
Cmax [13, 18]: 30200 ± 14600 ng/mL
MRT [13, 18]: 21.6 ± 15.6 min
half-life ([13]; male, SD, rat, plasma, iv, 5 mg/kg, K10-HL (elimination half-life), i.v. 5 mg/kg): 15 ± 10.8 min
AUC(0-inf) [13, 19]: 6690 ± 1510 ng·h/mL
Cmax [13, 19]: 4110 ± 888 ng/mL
Tmax [13, 19]: 36 min
bioavailability [13, 19]: 78.5 ± 17.7%
half-life ([13]; male, SD, rat, plasma, sc, 5 mg/kg, K01-HL (absorption half-life), s.c. 5 mg/kg): 24.6 ± 0.6 min
half-life ([13]; male, SD, rat, plasma, sc, 5 mg/kg, K10-HL (elimination half-life), s.c. 5 mg/kg): 25.2 ± 0.24 min
K01 (absorption constant) ([13]; s.c. 5 mg/kg): 1.68 ± 0.02 h⁻¹
K10 (elimination constant) ([13]; s.c. 5 mg/kg): 1.66 ± 0.01 h⁻¹
stability in rat liver microsomes (in words) ([14]; RLM 0.5 mg/mL, NADPH 1 mM): stable; also recorded: high stability
degradation in negative control experiment ([14]; RLM, without NADPH): no degradation
